Laboratory results published in patent US20260265262A1, “CDK2 INHIBITORS AND METHODS OF USING THE SAME” (Cedilla Therapeutics, Inc., priority 2022, published 2026).

Legend:
[1] = system: Kuramochi cells; test: IncuCyte cell proliferation assay; assay type: cell-based; settings: Kuramochi cells labeled with mApple-H2B, cell count 0 to 72 hours, 20 μM top concentration; read-out: IncuCyte Kuramochi RB-WT: IC50
Description: IncuCyte® assay was used to measure the effect of disclosed compounds on cell proliferation. Fluorescent microscopy images of cells were taken immediately after compound treatment and 72 hours later. Image analysis software was used to obtain cell counts as a function of compound concentration. Kuramochi cells labeled with mApple-H2B were seeded on 384-well assay-ready plates. Plates were placed in an IncuCyte® (Sartorius) and scanned at 0 and 72 hours. IncuCyte® software was used to count the number of fluorescent nuclei in each well. The fold change in cell count from 0 to 72 hours in wells treated with increasing compounds concentrations (10 pts, 1/2 log dilution, 20 μM top concentration) was normalized to DMSO control wells. The normalized cell counts were fit with dose response curves and a […] was calculated.

[2] = target: CDK2/Cyclin E1 (Homo sapiens, UniProt P24941); test: ADP-Glo Luminescent Kinase Assay (CDK2/E1-37C); assay type: biochemical; settings: 0.18 nM CDK2/Cyclin E1, 100 μM ATP, 1.5 μM Histone H1, 37° C., 60 min pre-incubation; read-out: ADPGLO (CDK2/E1-37C): IC50
Description: Inhibition of CDK2/Cyclin E1 activity by the presence of small molecules was evaluated using ADP-Glo Luminescent Kinase Assay (Promega). Activated CDK2/Cyclin E1 was incubated with its substrate Histone H1 (SignalChem H10-54N) in the kinase reaction buffer (100 μM ATP, 50 mM HEPES pH 7.5, 10 mM MgCl2, 1 mM EDTA, 2 mM DTT, 0.01% Brij35, 0.5 mg/mL BSA). Luminescence was recorded with an Envision plate reader (PerkinElmer).
Dose titrations of inhibitors in 100% DMSO were combined with 0.36 nM CDK2/Cyclin E1 in reaction buffer. The mixtures were incubated for 60 minutes at 37° C. before the addition of ATP and Histone H1 substrate to initiate the kinase reaction. The final conditions were 0.18 nM CDK2/Cyclin E1, 100 μM ATP, and 1.5 μM Histone H1. The reactions were incubated at 37° C. for 90 minutes before being stopped with the addition of ADP-Glo reagent. This mixture was incubated at room temperature for 60 minutes before Kinase Detection Solution is added to generate luminescence. The stopped reactions were analyzed on an Envision plate reader. The conversion ratios were normalized to yield % activity, plotted against compound concentration, and fit to a four-parameter equation to determine the IC50 for each compound.

Row | IC50 [2] | Compound | IC50 [1]
1 | < 0.5 µM | C[C@@H](OCC12CCC(CC1)OC2)[C@H](NC(=O)[C@@H]1CN(C(=O)c2cnn(Cc3ccccc3C(=O)O)c2)CC12CN(C(=O)C1(C(F)(F)F)CC1)C2)C(=O)N1CCNC2(CC2)C1 [Example I-112, 2-((4-((S)-8-(((2S,3R)-3-((2-oxabicyclo[2.2.2]octan-4-yl)methoxy)-1-oxo-1-(4,7-diazaspiro[2.5]octan-7-yl)butan-2-yl)carbamoyl)-2-(1-(trifluoromethyl)cyclopropane-1-carbonyl)-2,6-diazaspiro[3.4]octane-6-carbonyl)-1H-pyrazol-1-yl)methyl)benzoic acid] | > 20 µM
2 | < 0.5 µM | C[C@@H](OCC12CCC(CC1)OC2)[C@H](NC(=O)[C@@H]1CN(C(=O)c2cnn(Cc3ccccc3C(=O)OC(C)(C)C)c2)CC12CN(C(=O)C1(C(F)(F)F)CC1)C2)C(=O)NCCC1CCN(C(=O)OC(C)(C)C)CC1 [Example I-103] | 0.5 to 5 µM
3 | 5 to 10 µM | C[C@@H](OCC12CCC(CC1)OC2)[C@H](NC(=O)[C@@H]1CN(C(=O)c2cnn(Cc3ccc(C(F)(F)F)cc3)c2)CC12CN(C(=O)C1(C(F)(F)F)CC1)C2)C(=O)NCCC(=O)NS(C)(=O)=O [Example I-73, (S)—N-((2S,3R)-3-((2-oxabicyclo[2.2.2]octan-4-yl)methoxy)-1-((3-(methylsulfonamido)-3-oxopropyl)amino)-1-oxobutan-2-yl)-6-(1-(4-(trifluoromethyl)benzyl)-1H-pyrazole-4-carbonyl)-2-(1-(trifluoromethyl)cyclopropane-1-carbonyl)-2,6-diazaspiro[3.4]octane-8-carboxamide] | > 20 µM
4 | < 0.5 µM | C[C@@H](OCC12CCC(CC1)OC2)[C@H](NC(=O)[C@@H]1CN(C(=O)c2cnc(O)cn2)CC12CN(C(=O)[C@H]1CC1(C)C)C2)C(=O)N1CCC(c2ccc(C(F)(F)F)cc2C(=O)O)CC1 [Example I-10] | > 20 µM
5 | < 0.5 µM | C[C@@H](OCC12CCC(CC1)OC2)[C@H](NC(=O)[C@@H]1CN(C(=O)c2cnn(Cc3ccc(C(F)(F)F)cc3)c2)CC12CN(C(=O)C1(C(F)(F)F)CC1)C2)C(=O)N1CCC(c2ccc(OC(C)(C)C(=O)O)c(C(F)(F)F)c2)CC1 [Example I-4] | > 20 µM
6 | 0.5 to 5 µM | C[C@@H](OCC12CCC(CC1)OC2)[C@@H](COC1CCC(c2nccs2)CC1)NC(=O)[C@@H]1CN(C(=O)c2cnn(Cc3ccc(C(F)(F)F)cc3)c2)CC12CN(C(=O)C1(C(F)(F)F)CC1)C2 (stereo partly drawn) [Example I-107, (S)—N-((2R,3R)-3-(2-oxabicyclo[2.2.2]octan-4-ylmethoxy)-1-((4-(thiazol-2-yl)cyclohexyl)oxy)butan-2-yl)-6-(1-(4-(trifluoromethyl)benzyl)-1H-pyrazole-4-carbonyl)-2-(1-(trifluoromethyl)cyclopropanecarbonyl)-2,6-diazaspiro[3.4]octane-8-carboxamide] | 5 to 20 µM
7 | < 0.5 µM | C[C@@H](OCC12CCC(CC1)OC2)[C@H](NC(=O)[C@@H]1CN(C(=O)c2cnn(Cc3ccccc3)c2)CC12CN(C(=O)C1(C(F)(F)F)CC1)C2)C(=O)N1CCC(c2nccs2)CC1 [Example I-69, (S)—N-((2S,3R)-3-(2-oxabicyclo[2.2.2]octan-4-ylmethoxy)-1-oxo-1-(4-(thiazol-2-yl)piperidin-1-yl)butan-2-yl)-6-(1-benzyl-1H-pyrazole-4-carbonyl)-2-(1-(trifluoromethyl)cyclopropanecarbonyl)-2,6-diazaspiro[3.4]octane-8-carboxamide] | 0.5 to 5 µM
8 | < 0.5 µM | C[C@@H](OCC12CCC(CC1)OC2)[C@H](NC(=O)[C@@H]1CN(C(=O)c2cnn(Cc3ccc(C(F)(F)F)cc3)c2)CC12CN(C(=O)C1(C(F)(F)F)CC1)C2)C(=O)NS(=O)(=O)c1ccc(F)cc1 [Example I-85, (S)—N-((2S,3R)-3-((2-oxabicyclo[2.2.2]octan-4-yl)methoxy)-1-((4-fluorophenyl)sulfonamido)-1-oxobutan-2-yl)-6-(1-(4-(trifluoromethyl)benzyl)-1H-pyrazole-4-carbonyl)-2-(1-(trifluoromethyl)cyclopropane-1-carbonyl)-2,6-diazaspiro[3.4]octane-8-carboxamide] | > 20 µM
9 | < 0.5 µM | C[C@@H](OCC1CCCCC1)[C@H](NC(=O)[C@@H]1CN(C(=O)c2cnn(Cc3ccccc3)c2)CC12CN(C(=O)[C@H]1CC1(C)C)C2)C(=O)NS(=O)(=O)c1ccc(F)cc1F [Example I-26, (S)-6-(1-benzyl-1H-pyrazole-4-carbonyl)-N-((2S,3R)-3-(cyclohexylmethoxy)-1-((2,4-difluorophenyl)sulfonamido)-1-oxobutan-2-yl)-2-((S)-2,2-dimethylcyclopropane-1-carbonyl)-2,6-diazaspiro[3.4]octane-8-carboxamide] | 0.5 to 5 µM
10 | > 10 µM | N#Cc1ccc(Cn2cc(C(=O)N3CC(C(=O)N[C@@H](COCC45CCC(CC4)OC5)c4ccc(C(=O)O)cc4)C4(C3)CN(C(=O)C3(C(F)(F)F)CC3)C4)cn2)cc1 (stereo partly drawn) [Example I-23, 4-((1R)-2-((2-oxabicyclo[2.2.2]octan-4-yl)methoxy)-1-(6-(1-(4-cyanobenzyl)-1H-pyrazole-4-carbonyl)-2-(1-(trifluoromethyl)cyclopropane-1-carbonyl)-2,6-diazaspiro[3.4]octane-8-carboxamido)ethyl)benzoic acid] | > 20 µM
11 | < 0.5 µM | C[C@@H](OCC12CCC(CC1)OC2)[C@H](NC(=O)[C@@H]1CN(C(=O)c2cnn(Cc3ccccc3C(=O)O)c2)CC12CN(C(=O)C1(C(F)(F)F)CC1)C2)C(=O)N1CCC2(CCNCC2)CC1 [Example I-60, 2-((4-((S)-8-(((2S,3R)-3-((2-oxabicyclo[2.2.2]octan-4-yl)methoxy)-1-oxo-1-(3,9-diazaspiro[5.5]undecan-3-yl)butan-2-yl)carbamoyl)-2-(1-(trifluoromethyl)cyclopropane-1-carbonyl)-2,6-diazaspiro[3.4]octane-6-carbonyl)-1H-pyrazol-1-yl)methyl)benzoic acid] | 0.5 to 5 µM
12 | < 0.5 µM | C[C@@H](OCC12CCC(CC1)OC2)[C@H](NC(=O)[C@@H]1CN(C(=O)c2cnn(Cc3ccc(C(F)(F)F)cc3)c2)CC12CN(C(=O)C1(C(F)(F)F)CC1)C2)C(=O)N1CCC(C#N)CC1 [Example I-25, (S)—N-((2S,3R)-3-((2-oxabicyclo[2.2.2]octan-4-yl)methoxy)-1-(4-cyanopiperidin-1-yl)-1-oxobutan-2-yl)-6-(1-(4-(trifluoromethyl)benzyl)-1H-pyrazole-4-carbonyl)-2-(1-(trifluoromethyl)cyclopropane-1-carbonyl)-2,6-diazaspiro[3.4]octane-8-carboxamide] | > 20 µM
13 | > 10 µM | C[C@@H](OCC12CCC(CC1)OC2)[C@@H](CN1CCC(C(=O)O)CC1)NC(=O)[C@@H]1CN(C(=O)c2cnn(Cc3ccc(C(F)(F)F)cc3)c2)CC12CN(C(=O)C1(C(F)(F)F)CC1)C2 [Example I-97, 1-((2R,3R)-3-((2-oxabicyclo[2.2.2]octan-4-yl)methoxy)-2-((S)-6-(1-(4-(trifluoromethyl)benzyl)-1H-pyrazole-4-carbonyl)-2-(1-(trifluoromethyl)cyclopropane-1-carbonyl)-2,6-diazaspiro[3.4]octane-8-carboxamido)butyl)piperidine-4-carboxylic acid] | –
14 | 5 to 10 µM | C[C@@H](OCC1(C(=O)O)CCCCC1)[C@H](NC(=O)[C@@H]1CN(C(=O)c2cnn(Cc3ccc(C(F)(F)F)cc3)c2)CC12CN(C(=O)C1(C(F)(F)F)CC1)C2)C(=O)N1CCC(c2nccs2)CC1 [Example I-76, 1-((((2R,3S)-4-oxo-4-(4-(thiazol-2-yl)piperidin-1-yl)-3-((S)-6-(1-(4-(trifluoromethyl)benzyl)-1H-pyrazole-4-carbonyl)-2-(1-(trifluoromethyl)cyclopropanecarbonyl)-2,6-diazaspiro[3.4]octane-8-carboxamido)butan-2-yl)oxy)methyl)cyclohexanecarboxylic acid] | –
15 | – | C[C@H](OCC12CCC(CC1)OC2)[C@@H](NC(=O)[C@@H]1CN(C(=O)c2cnc(O)cn2)CC12CN(C(=O)C1(C(F)(F)F)CC1)C2)C(=O)N1CCC(c2ccc(C(F)(F)F)c(C(=O)O)c2)CC1 [Example I-82, 5-(1-(O-((2-oxabicyclo[2.2.2]octan-4-yl)methyl)-N—((S)-6-(5-hydroxypyrazine-2-carbonyl)-2-(1-(trifluoromethyl)cyclopropane-1-carbonyl)-2,6-diazaspiro[3.4]octane-8-carbonyl)-D-threonyl)piperidin-4-yl)-2-(trifluoromethyl)benzoic acid] | > 20 µM
